Assay results published in patent US7214792B2 (priority 1999, dated 2007).

What follows are compounds tested on LAB-1 (assay: Antibiotic sensitivity testing of LAB-1). Conditions: LAB-1 organism.
Format: cell-based
Method: A variety of biochemical tests were performed in order to identify the species and the genus of organism. The tests included: assessment of growth conditions, culture appearance, cell appearance and staining characteristics, optimal temperature and pH growth range, oxygen requirements, antibiotic sensitivity testing, tests for catalase and oxidase (using TAXOS N ? disks), amino acid utilization as carbon source, nitrogen fixation, motility test, and a variety of commercially available tests from MICRO-ID ? , OXYFERM ? , ENTEROTUBE ? and BIOLOG GN MICROPLATE ? .
For Penicillin, the “Antibiotic Susceptibility Results” value was “resistant”. `CC1(C)S[C@@H]2[C@H](NC(=O)[C@H](N)c3ccccc3)C(=O)N2[C@H]1C(=O)O` [Ampicillin] was tested, and the “Antibiotic Susceptibility Results” value was “resistant”. For Neomycin, the “Antibiotic Susceptibility Results” value was “sensitive”. `CC[C@H]1OC(=O)[C@H](C)[C@@H](O[C@H]2C[C@@](C)(OC)[C@@H](O)[C@H](C)O2)[C@H](C)[C@@H](O[C@@H]2O[C@H](C)C[C@H](N(C)C)[C@H]2O)[C@](C)(O)C[C@@H](C)C(=O)[C@H](C)[C@@H](O)[C@]1(C)O` [Erythromycin] was tested, and the “Antibiotic Susceptibility Results” value was “resistant”. For Polymyxin B, the “Antibiotic Susceptibility Results” value was “sensitive”. In the case of `[H]/N=C(/N)N[C@H]1[C@H](O)[C@@H](O)[C@H](O[C@@H]2O[C@@H](C)[C@](O)(C=O)[C@H]2O[C@@H]2O[C@@H](CO)[C@H](O)[C@@H](O)[C@@H]2NC)[C@@H](N/C(N)=N\[H])[C@@H]1O` [Streptomycin], the “Antibiotic Susceptibility Results” value is reported as “resistant”. For `CO[C@@H]1[C@@H](OC(N)=O)[C@@H](O)[C@H](Oc2ccc3c(O)c(NC(=O)c4ccc(O)c(CC=C(C)C)c4)c(=O)oc3c2C)OC1(C)C` [Novobiocin], the “Antibiotic Susceptibility Results” value was “sensitive”. `NCC[C@H](O)C(=O)N[C@@H]1C[C@H](N)[C@@H](O[C@H]2O[C@H](CN)[C@@H](O)[C@H](O)[C@H]2O)[C@H](O)[C@H]1O[C@H]1O[C@H](CO)[C@@H](O)[C@H](N)[C@H]1O` [Amikacin] was tested, and the “Antibiotic Susceptibility Results” value was “sensitive”.
